Legend:
[1] = molecular target: T1, TLR4 (Homo sapiens, UniProt O00206+Q9Y6Y9); conditions: Hutchinson et al., Eur J Neurosci. 28:20-29, 2008; cited from earlier work
Target sequence in this assay (O00206 24-839, species assumed): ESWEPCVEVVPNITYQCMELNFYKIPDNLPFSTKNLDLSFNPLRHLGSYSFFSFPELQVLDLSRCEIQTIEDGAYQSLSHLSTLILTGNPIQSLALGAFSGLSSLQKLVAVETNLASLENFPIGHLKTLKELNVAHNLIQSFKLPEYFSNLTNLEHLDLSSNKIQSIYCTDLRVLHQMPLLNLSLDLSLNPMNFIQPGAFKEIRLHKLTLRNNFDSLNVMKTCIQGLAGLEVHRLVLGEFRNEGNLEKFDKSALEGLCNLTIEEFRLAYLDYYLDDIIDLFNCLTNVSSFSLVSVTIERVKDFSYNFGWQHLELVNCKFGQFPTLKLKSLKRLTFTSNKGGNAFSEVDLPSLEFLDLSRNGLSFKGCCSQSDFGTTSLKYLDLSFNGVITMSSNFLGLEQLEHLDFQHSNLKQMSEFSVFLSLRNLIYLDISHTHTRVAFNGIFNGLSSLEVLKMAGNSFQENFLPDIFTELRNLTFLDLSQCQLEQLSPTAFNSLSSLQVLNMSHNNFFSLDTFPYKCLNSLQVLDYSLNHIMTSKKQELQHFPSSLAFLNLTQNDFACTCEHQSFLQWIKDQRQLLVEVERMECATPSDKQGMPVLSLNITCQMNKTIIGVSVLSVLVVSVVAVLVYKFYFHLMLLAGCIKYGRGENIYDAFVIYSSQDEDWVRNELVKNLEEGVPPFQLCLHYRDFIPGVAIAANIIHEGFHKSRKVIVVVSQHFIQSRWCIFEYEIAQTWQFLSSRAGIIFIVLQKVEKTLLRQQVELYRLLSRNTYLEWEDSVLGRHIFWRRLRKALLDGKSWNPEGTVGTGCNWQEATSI
Target sequence in this assay (Q9Y6Y9 17-160 limits assumed, species assumed): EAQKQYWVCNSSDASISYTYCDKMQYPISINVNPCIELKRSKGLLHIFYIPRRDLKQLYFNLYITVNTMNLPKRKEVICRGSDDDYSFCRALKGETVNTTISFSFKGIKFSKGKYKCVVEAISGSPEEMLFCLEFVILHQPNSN

[2] = system: Con A-induced hepatitis; test: Concanavalin A hepatitis in mouse (murine model of AIH); format: in vivo
[3] = system: liver NK cells, NKT cells and mononuclear cells; test: Murine model of primary biliary cirrhosis (2-OA-BSA and α-GalCer immunized C57BL/6 mice); format: in vivo, mouse; conditions: 50 mg/kg bid oral; for effect on elevated liver NK cells: week 4 through week 10 (FIG. 3); for effect on elevated liver NKT cells: week 4 through week 10 (FIG. 4); for effect on elevated liver mononuclear cells: week 4 through week 10 (not shown)
From the text: C57BL/6 mice of 8-10 weeks old were immunized with 2-OA-BSA and α-GalCer at week 0, followed by booster injections at 2, 4, and 8. […] Each value represents individual animals. Some animals were lost due to lunging.

[4] = molecular target: T1, TLR4; test: Inhibition of TLR4 activation: NF-κB-inducible SEAP reporter, antagonist assay with LPS; format: cell-based; parameters: expressed in transfected cells; host or cells: HEK293
Procedure: The secreted alkaline phosphatase reporter is under the control of a promoter inducible by the transcription factor NF-κB. TLR stimulation in the screening is tested by assessing NF-κB activation in the HEK293 cells expressing a given TLR. This reporter gene allows the monitoring of signaling through the TLR, based on the activation of NF-κB. In a 96-well plate (200μL total volume) containing the appropriate cells (25,000-50,000 cells/well), we add 20μL of your sample or the positive control ligands to the wells. For the antagonist assay, the samples are incubated with the cells for 30 minutes prior to adding the appropriate stimulating ligand. The media we add to the wells is designed for the detection of NF-κB induced SEAP expression. After a 16-20 hr incubation we read the OD at 650 nm on a Beckman Coulter AD 340C Absorbance Detector.
Target sequence in this assay (O00206 24-839): as the sequence (O00206 24-839, species assumed) above
Target sequence in this assay (Q9Y6Y9 17-160 limits assumed): as the sequence (Q9Y6Y9 17-160 limits assumed, species assumed) above

[5] = 20 mg/kg, 9 hours post Con A challenge, P<0.05 vs vehicle
[6] = 50 mg/kg PO, result in words (FIG. 2)

Row | Structure (SMILES) | reported TLR4 antagonist [1] | reduction of IL-5 in the liver [2, 5] [%] | reduction of IL-6 in the liver [2, 5] [%] | effect on elevated liver NK cells [3] | effect on elevated liver NKT cells [3] | effect on elevated liver mononuclear cells [3] | % of Inhibition of NF-κB ([4]; HEK293 cells expressing TLR4, LPS 50 pg/mL, compound 10 μM) [%] | inhibition of LPS-induced TLR4 activation ([4]; at various concentrations) | inhibition of Con A-induced elevation of ALT [2, 6] | inhibition of Con A-induced elevation of AST [2, 6] | reduction of IL-5 in the serum ([2]; 50 mg/kg, 6 hours post Con A challenge) [%] | reduction of IL-5 in the liver ([2]; 50 mg/kg, 24 hours post Con A challenge) [%]
1 | O=C1CC[C@@]2(O)[C@H]3Cc4ccc(O)c5c4[C@@]2(CCN3CC2CC2)[C@H]1O5 [Compound A, naltrexone] | TLR4 antagonist | 21 | 32 | suppressed | suppressed | suppressed |  |  |  |  |  | 
2 | C=C1CC[C@@]2(O)[C@H]3Cc4ccc(O)c5c4[C@@]2(CCN3CC2CC2)[C@H]1O5 [Compound B, nalmefene] |  |  |  | suppressed | suppressed | suppressed | 21 | weak inhibition | significant (P<0.05) inhibition | significant (P<0.05) inhibition | 64 | 16
3 | COc1ccc2c(c1)[C@@]13CCCC[C@H]1[C@@H](C2)NCC3 [Compound C, 3-methoxymorphinan] |  |  |  | suppressed | suppressed | suppressed |  |  |  |  |  | 
4 | Oc1ccc2c(c1)[C@@]13CCCC[C@H]1[C@@H](C2)NCC3 [Compound D, 3-hydroxymorphinan] |  |  |  | suppressed | suppressed | suppressed |  |  |  |  |  | 

Source: patent US9757372B2, “Toll-like receptor 4 antagonists and use in autoimmune liver diseases” (TAIWANJ PHARMACEUTICALS CO., LTD., priority 2015, dated 2017)
